Test results taken from patent publication US20250171404A1, “PCNA INHIBITORS AND USES THEREOF” (CITY OF HOPE, priority 2022, published 2025).

Columns and labels:
[1] = Compound metabolism in liver microsome; format: in vitro ADME, human; conditions: compared with AOH1160
Protocol: FIGS. 12A-12E. AOH1996 metabolism and in vivo pharmacokinetics. FIG. 12A: Illustration of AOH1160 degradation by carboxyl esterase-mediated cleavage or by hydroxylation. FIG. 12B: Chromatogram of liver microsome reaction mixtures of AOH1160 and AOH1996. The metabolites shown in FIG. 12A are indicated above their corresponding peaks. FIG. 12C: An aliquot of the liver microsome reaction mixture of AOH1996 was taken after various incubation times in the presence or absence of NADPH as the energy source. AOH1996 concentrations, determined by LC/MS-MS, as a percentage of the input concentration were graphed. FIG. 12D: After oral administration, the plasma concentrations of AOH1996 from three male and three female ES1e/SCID mice at the indicated time points were averaged and graphed ±S.D. The inset contains PK parameters determined by a standard noncompartmental method. FIG. 12E: A similar PK study of AOH1996 was performed in dogs.
Measurement of compound metabolism in liver microsome. AOH1160 analogs were incubated in human liver microsomes in the presence or absence of NADPH at 37° C. An aliquot of the reaction mixture was taken after various incubation times. Compound concentration was determined by liquid chromatography-tandem mass spectrometry (LC-MS/MS) as previously described (Gu et al., 2018).

[2] = Oral pharmacokinetic study in mice; format: in vivo, ES1^e/SCID mice
Protocol: (§1) FIGS. 4A-4H. Pharmacokinetics and anti-tumor growth activity of AOH1996 in vivo. FIG. 4A: After oral administration, the plasma concentrations of AOH1996 from three male and three female ES1^e/SCID mice at the indicated time points were averaged and graphed ±S.D. The inset contains PK parameters determined by a standard noncompartmental method. FIG. 4B: A similar PK study of AOH1996 was performed in dogs. FIGS. 4C-4E: Mice bearing the xenograft tumors of neuroblastoma (FIG. 4C: SK-N-BE(2)c), breast cancer (FIG. 4D: MDA-MB-468), and small-cell lung cancer (FIG. 4E: H82) were given vehicle only (black) or 40 mg/kg of AOH1996 (grey) twice daily immediately after the first measurement. Tumor sizes were measured by a dial caliper each week. Tumor volumes (0.4×L×W^2) were averaged and graphed ±S.E. (*, P<0.01). FIG. 4F: Animal body weight was monitored throughout the studies as an indicator of toxicity. Shown is a typical study results from the study of the SK-N-BE(2)c tumor model described in (FIG. 4C). FIG. 4G: The levels of phosphor-Chk1 (pChk1) and γH2A.X in SK-N-BE(2)c derived tumor samples were analyzed by IHC. Shown are representative images taken from tumors treated by vehicle only or by 40 mg/kg AOH1996. FIG. 4H: ES1^e/SCID mice bearing SK-N-AS derived xenograft tumors were treated with either 80 mg/kg of AOH1996 (black, n=7) for 8 d beginning 8 d after tumor implantation, 15 mg/kg of CPT-11 (n=8) for 3 d beginning 12 d after tumor implantation, or both agents (combination, n=8) under the same dosages and schedules as they were dosed alone. Mice implanted with the same tumor and left untreated were used as control (n=8). Shown are the survival graphs. The p values determined by the Log-rank (Mantel-Cox) test between combination treatment and each of the control groups are p=0.0003 (Combination vs. NoRx), p=0.005 (Combination vs. AOH1996 alone), and p=0.024 (Combination vs. CPT-11 alone).
The improved stability of AOH1996 (FIGS. 12A-12E) translated into a significant benefit in the pharmacokinetics (PK).
Pharmacokinetic (PK) study in animals. An oral dosing solution was prepared by dissolving AOH1996 (40 mg) in a mixture of Kolliphor EL (840 mg) and Poloxamer P124 (120 mg). For the mouse study, blood samples were collected from ES1^e/SCID mice (3 male and 3 female) per dosing group by cardiac puncture at 10, 20, and 30 min and 1, 2, 4, 6, and 24 h after dosing. For the dog study, blood samples were collected from 3 male beagle dogs per dosing group by venipuncture of peripheral veins at 5, 15, and 30 min and 1, 2, 4, 8, 12, and 24 h after dosing. Following removal of blood cells, plasma concentration of AOH1996 was determined by LC-MS/MS as described (Gu et al., 2018). Oral PK was determined using standard non-compartmental methods.

[3] = test system: H82 xenograft tumors; assay: Xenograft tumor model, small-cell lung cancer; format: in vivo, mice; conditions: 40 mg/kg twice daily, oral, vs vehicle
Protocol: as §1, with “Shown is a typical study results from the study of the SK-N-BE(2)c tumor model described in (FIG. 4C).” left out, “Shown are representative images taken from tumors treated by vehicle only or by 40 mg/kg AOH1996. FIG. 4H: ES1^e/SCID mice bearing SK-N-AS derived xenograft tumors were treated with either 80 mg/kg of AOH1996 (black, n=7) for 8 d beginning 8 d after tumor implantation, 15 mg/kg of CPT-11 (n=8) for 3 d beginning 12 d after tumor implantation, or both agents (combination, n=8) under the same dosages and schedules as they were dosed alone. Mice implanted with the same tumor and left untreated were used as control (n=8). Shown are the survival graphs.” left out
In vivo tumor model. […] Tumor size and animal weight were measured weekly. […]

[4] = test system: SK-N-AS cells homozygous of the Y418A mutant RPB1 alleles; assay: Growth of RPB1 Y418A (APIM) mutant cell lines; format: cell-based, human; conditions: 72 hrs; vs parent SK-N-AS

COc1cccc(Oc2ccccc2NC(=O)CNC(=O)c2cccc3ccccc23)c1 [AOH1996, N-(2-((2-(3-methoxyphenoxy)phenyl)amino)-2-oxoethyl)-1-naphthamide]
metabolic stability [1]: metabolically more stable than AOH1160
half-life ([2]; 40 mg/kg, mice): 4.33 h
increase in area under curve (AUC) vs AOH1160 ([2]; 40 mg/kg, mice): ~4%
increase in half-life vs AOH1160 ([2]; 40 mg/kg, mice): ~27%
increase in peak concentration (Cmax) vs AOH1160 ([2]; 40 mg/kg, mice): ~40%
absorption into circulation ([2]; animals, data not shown): ~90%
tumor burden [3]: significantly reduced tumor burden
sensitivity of RPB1 Y418A mutant cells to growth inhibition [4]: significantly less sensitive to growth inhibition by AOH1996 than the parent cells
